Assay results as given in the NIST ThermoML archive (doi:10.1016/j.fluid.2010.05.017).
Numbers after ± are expanded uncertainties.

Columns and labels:
[1] = xn = mol fraction of the nth substance listed; settings: 298.15 K, 101 kPa, Liquid, Vibrating tube method
[2] = refractive index (Na D-line) (dimensionless); settings: 298.15 K; 101.33 kPa; Liquid; Standard Abbe refractometry
[3] = 298.15 K; 101.33 kPa; Liquid; Vibrating tube method

`CCCCCC` [hexane] + Cc1ccccc1C gave a mass density ([1]; x1 = 1) of 655.19 ± 0.25 kg/m3.

In the case of `Cc1ccc(C)cc1` [1,4-dimethylbenzene] + CCCCCC, the mass density ([1]; x2 = 0) is reported as 856.59 ± 0.24 kg/m3, the mass density ([1]; x2 = 0.048) is reported as 847.14 ± 2.4 kg/m3 and the mass density ([1]; x2 = 0.098) is reported as 836.82 ± 2.5 kg/m3. For the same molecule, the mass density ([1]; x2 = 0.196) was 816.92 ± 2.5 kg/m3, the mass density ([1]; x2 = 0.292) was 797.23 ± 2.5 kg/m3 and the mass density ([1]; x2 = 0.394) was 776.41 ± 2.5 kg/m3. For the same molecule, the mass density ([1]; x2 = 0.492) was 756.57 ± 2.4 kg/m3, the mass density ([1]; x2 = 0.591) was 736.73 ± 2.4 kg/m3 and the mass density ([1]; x2 = 0.692) was 716.48 ± 2.4 kg/m3. It also gave a mass density ([1]; x2 = 0.792) of 696.69 ± 2.4 kg/m3, a mass density ([1]; x2 = 0.892) of 676.71 ± 2.4 kg/m3 and a mass density ([1]; x2 = 0.948) of 665.7 ± 2.4 kg/m3.

Work on `CCOS(=O)(=O)[O-].CC[n+]1cccc(C)c1` [1-ethyl-3-methylpyridinium ethylsulfate] yielded a refractive index [2] of 1.50591 ± 0.00071 and a mass density [3] of 1219.61 ± 0.42 kg/m3.

With `Cc1cccc(C)c1` [1,3-dimethylbenzene] + CCCCCC the mass density ([1]; x2 = 0) was 859.79 ± 0.24 kg/m3, the mass density ([1]; x2 = 0.05) was 849.62 ± 2.5 kg/m3 and the mass density ([1]; x2 = 0.098) was 839.51 ± 2.5 kg/m3. For the same molecule, the mass density ([1]; x2 = 0.194) was 819.34 ± 2.5 kg/m3, the mass density ([1]; x2 = 0.297) was 797.9 ± 2.5 kg/m3 and the mass density ([1]; x2 = 0.398) was 777.18 ± 2.5 kg/m3. For the same molecule, the mass density ([1]; x2 = 0.498) was 756.55 ± 2.5 kg/m3, the mass density ([1]; x2 = 0.6) was 735.62 ± 2.5 kg/m3 and the mass density ([1]; x2 = 0.699) was 715.46 ± 2.5 kg/m3. It also gave a mass density ([1]; x2 = 0.793) of 696.42 ± 2.4 kg/m3, a mass density ([1]; x2 = 0.896) of 676.03 ± 2.4 kg/m3 and a mass density ([1]; x2 = 0.948) of 665.51 ± 2.4 kg/m3.

`Cc1ccccc1C` [1,2-dimethylbenzene] + CCCCCC showed a mass density ([1]; x2 = 0) of 875.37 ± 0.24 kg/m3, a mass density ([1]; x2 = 0.045) of 865.52 ± 2.7 kg/m3 and a mass density ([1]; x2 = 0.097) of 853.5 ± 2.7 kg/m3. The mass density ([1]; x2 = 0.189) was 832.71 ± 2.7 kg/m3, the mass density ([1]; x2 = 0.295) was 809.05 ± 2.7 kg/m3 and the mass density ([1]; x2 = 0.397) was 786.32 ± 2.7 kg/m3. The mass density ([1]; x2 = 0.495) was 764.54 ± 2.7 kg/m3, the mass density ([1]; x2 = 0.597) was 742.07 ± 2.6 kg/m3 and the mass density ([1]; x2 = 0.697) was 720.32 ± 2.6 kg/m3. It also gave a mass density ([1]; x2 = 0.797) of 698.71 ± 2.6 kg/m3, a mass density ([1]; x2 = 0.901) of 676.45 ± 2.6 kg/m3 and a mass density ([1]; x2 = 0.95) of 665.83 ± 2.6 kg/m3.

Molecule `CCCCCC` [hexane] + Cc1cccc(C)c1 has a mass density ([1]; x1 = 1) of 655.19 ± 0.25 kg/m3.

For `CCCCCC` [hexane] + Cc1ccc(C)cc1, the mass density ([1]; x1 = 1) was 655.19 ± 0.25 kg/m3.
